Where two headings read alike, the source gives them in different places.
Test system: HBV rcDNA in HepDE19 cells
Experiment: HepDE19 assay with bDNA quantitation of HBV rcDNA
Type: cell-based, hepatitis B virus
Settings: inhibition of rcDNA formation, bDNA quantitation, read-out: DE-19bDNA EC50
[1] = Hepatitis B virus, HepDE19, HepDE19 assay

Compound	EC50 (HepDE19 assay) [nM]	EC50 [1] [nM]
CN(C(=O)c1cc2c(C(F)F)c(F)ccc2[nH]1)C1COCc2[nH]c(=O)c3cc(F)ccc3c21 (single isomer, unassigned) [Compound 255, 4-(Difluoromethyl)-5-fluoro-N-(8-fluoro-6-oxo-1,4,5,6-tetrahydro-2H-pyrano[3,4-c]isoquinolin-1-yl)-N-methyl-1H-indole-2-carboxamide]	680	
CN(C(=O)c1cc2cc(C#N)ccc2[nH]1)[C@@H]1COCc2[nH]c(=O)c3cc(F)c(F)cc3c21 [Compound 345, (S)-5-Cyano-N-(8,9-difluoro-6-oxo-1,4,5,6-tetrahydro-2H-pyrano[3,4-c]isoquinolin-1-yl)-N-methyl-1H-indole-2-carboxamide]		30
CN(C(=O)c1cc2cc(F)ccc2[nH]1)[C@@H]1CCCc2[nH]c(=O)c3cc(F)ccc3c21 [Compound 489, (R)-5-Fluoro-N-(8-fluoro-6-oxo-1,2,3,4,5,6-hexahydrophenanthridin-1-yl)-N-methyl-11H-indole-2-carboxamide]		10
COc1c2cc(C(=O)N(C)[C@@H]3COCc4[nH]c(=O)c5cc(F)c(F)cc5c43)ccc2nn1C(F)F [Compound 368, (S)-N-(8,9-Difluoro-6-oxo-1,4,5,6-tetrahydro-2H-pyrano[3,4-c]isoquinolin-1-yl)-2-(difluoromethyl)-3-methoxy-N-methyl-2H-indazole-5-carboxamide]		3400
CN(C(=O)c1cc2c(C(F)F)cccn2c1)[C@@H]1COCc2[nH]c(=O)c3cc(F)c(F)cc3c21 [Compound 407, (S)-N-(8,9-difluoro-6-oxo-1,4,5,6-tetrahydro-2H-pyrano[3,4-c]isoquinolin-1-yl)-8-(difluoromethyl)-N-methylindolizine-2-carboxamide]		10
CN(C(=O)c1cc2cc(F)ccn2c1)[C@@H]1COCc2[nH]c(=O)c3cc(F)c(F)cc3c21 [Compound 231, (S)-N-(8,9-Difluoro-6-oxo-1,4,5,6-tetrahydro-2H-pyrano[3,4-c]isoquinolin-1-yl)-7-fluoro-N-methylindolizine-2-carboxamide]		10
CN(C(=O)c1cc2ccc(F)cn2c1)C1CNCc2[nH]c(=O)c3cc(F)c(F)cc3c21 (single isomer, unassigned) [Compound 222, N-(8,9-Difluoro-6-oxo-1,2,3,4,5,6-hexahydrobenzo[c][1,7]naphthyridin-1-yl)-6-fluoro-N-methylindolizine-2-carboxamide]	7070	
CN(C(=O)c1cc2c(C(F)F)cccc2[nH]1)C1CNCc2[nH]c(=O)c3cc(F)ccc3c21 (single isomer, unassigned) [Compound 209, N-(8-Fluoro-6-oxo-1,2,3,4,5,6-hexahydrobenzo[c][1,7]naphthyridin-1-yl)-4-(difluoromethyl)-N-methyl-1H-indole-2-carboxamide]	4400	
CN(C(=O)c1cc(F)c(Br)c(F)c1)C1CNCc2[nH]c(=O)c3cc(F)c(F)cc3c21 (single isomer, unassigned) [Compound 164, 4-Bromo-N-(8,9-difluoro-6-oxo-1,2,3,4,5,6-hexahydrobenzo[c][1,7]naphthyridin-1-yl)-3,5-difluoro-N-methylbenzamide]	2880	
CN(C(=O)c1cc2c(Br)cncc2[nH]1)[C@@H]1COCc2[nH]c(=O)c3cc(F)c(F)cc3c21 [Compound 312, (S)-4-Bromo-N-(8,9-difluoro-6-oxo-1,4,5,6-tetrahydro-2H-pyrano[3,4-c]isoquinolin-1-yl)-N-methyl-1H-pyrrolo[2,3-c]pyridine-2-carboxamide]		30
CN(C(=O)C1Nc2ccccc2C1(C)C)C1COCc2[nH]c(=O)c3cc(F)c(F)cc3c21 (stereo not drawn) [Compound 56, N-(8,9-Difluoro-6-oxo-1,4,5,6-tetrahydro-2H-pyrano[3,4-c]isoquinolin-1-yl)-N,3,3-trimethylindoline-2-carboxamide]		18000
CN(C(=O)c1cc2cc(Cl)ccc2[nH]1)[C@@H]1COCc2[nH]c(=O)c3cc(F)c(F)cc3c21 [Compound 325, (S)-5-chloro-N-(8,9-Difluoro-6-oxo-1,4,5,6-tetrahydro-2H-pyrano[3,4-c]isoquinolin-1-yl)-N-methyl-1H-indole-2-carboxamide]		20
CNc1nc2c(c3cc(F)c(F)cc13)C(N(C)C(=O)c1cc3cc(F)c(F)cc3[nH]1)COC2 (single isomer, unassigned) [Compound 333, N-(8,9-Difluoro-6-(methylamino)-1,4-dihydro-2H-pyrano[3,4-c]isoquinolin-1-yl)-5,6-difluoro-N-methyl-1H-indole-2-carboxamide]	530	
CN(C(=O)c1cc2c(F)cccc2[nH]1)C1COCc2[nH]c(=O)c3cc(F)ccc3c21 (single isomer, unassigned) [Compound 20, 4-Fluoro-N-(8-fluoro-6-oxo-1,4,5,6-tetrahydro-2H-pyrano[3,4-c]isoquinolin-1-yl)-N-methyl-1H-indole-2-carboxamide]	20	
CCc1ccc2[nH]c(C(=O)N(C)[C@@H]3COCc4[nH]c(=O)c5cc(F)c(F)cc5c43)cc2c1 [Compound 328, (S)-N-(8,9-Difluoro-6-oxo-1,4,5,6-tetrahydro-2H-pyrano[3,4-c]isoquinolin-1-yl)-5-ethyl-N-methyl-1H-indole-2-carboxamide]		3100
CN(C(=O)c1cc2cc(Cl)ncc2[nH]1)[C@@H]1COCc2[nH]c(=O)c3cc(F)c(F)cc3c21 [Compound 204, (S)-5-Chloro-N-(8,9-difluoro-6-oxo-1,4,5,6-tetrahydro-2H-pyrano[3,4-c]isoquinolin-1-yl)-N-methyl-1H-pyrrolo[2,3-c]pyridine-2-carboxamide]		40
CN(C(=O)c1cc2c(C(F)F)c(F)ccc2[nH]1)C1CNCc2[nH]c(=O)c3cc(F)c(F)cc3c21 (single isomer, unassigned) [Compound 264, N-(8,9-Difluoro-6-oxo-1,2,3,4,5,6-hexahydrobenzo[c][1,7]naphthyridin-1-yl)-4-(difluoromethyl)-5-fluoro-N-methyl-1H-indole-2-carboxamide]	8230	
CN(C(=O)c1cc2cc(F)ccn2c1)C1CNCc2[nH]c(=O)c3cc(F)c(F)cc3c21 (single isomer, unassigned) [Compound 163, N-(8,9-Difluoro-6-oxo-1,2,3,4,5,6-hexahydrobenzo[c][1,7]naphthyridin-1-yl)-7-fluoro-N-methylindolizine-2-carboxamide]	30	
CN(C(=O)c1cc2cc(F)c(F)cc2[nH]1)[C@@H]1CCCc2[nH]c(=O)c3cc(F)c(F)cc3c21 [Compound 481, (R)-N-(8,9-difluoro-6-oxo-1,2,3,4,5,6-hexahydrophenanthridin-1-yl)-5,6-difluoro-N-methyl-1H-indole-2-carboxamide]		10
CN1Cc2[nH]c(=O)c3cc(F)c(F)cc3c2C(N(C)C(=O)c2cc3ccccc3[nH]2)C1 (single isomer, unassigned) [Compound 62, N-(8,9-Difluoro-3-methyl-6-oxo-1,2,3,4,5,6-hexahydrobenzo[c][1,7]naphthyridin-1-yl)-N-methyl-1H-indole-2-carboxamide]	5100	
CN(C(=O)c1cc2c(C(F)F)c(F)ccc2[nH]1)C1COCc2[nH]c(=O)c3cc(F)ccc3c21 (single isomer, unassigned) [Compound 256, 4-(Difluoromethyl)-5-fluoro-N-(8-fluoro-6-oxo-1,4,5,6-tetrahydro-2H-pyrano[3,4-c]isoquinolin-1-yl)-N-methyl-1H-indole-2-carboxamide]	10	

Source: patent publication US20240228504A1, “SUBSTITUTED TRICYCLIC AMIDES, ANALOGUES THEREOF, AND METHODS USING SAME” (Arbutus Biopharma Corporation, priority 2020, published 2024)
